# From PubChem BioAssay (NCI)
#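 Briefly, cells in 96-well plates were exposed to five compound concentrations for 48 h, and endpoints were estimated by linear interpolation. Definition used: TGI = concentration required for complete inhibition of growth.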 Where a SMILES comes first, the peptide text is derived from it. [ ]: non-standard residue; d: D form. The star is where a group is joined. Phe(4-NO2) = N[CH](Cc1ccc([N+](=O)[O-])cc1)C(=O)O; Boc = CC(C)(C)OC(=O)*
# Legend:
# Test in all cases: NCI anticancer screen, dose series, 48 h
# SK-MEL-5 melanoma = test system: SK-MEL-5 melanoma
# NCI-H23 lung = test system: NCI-H23 lung
# UO-31 renal = test system: UO-31 renal
# MALME-3M melanoma = test system: MALME-3M melanoma
# MOLT-4 leukemia = test system: MOLT-4 leukemia
# LOX IMVI melanoma = test system: LOX IMVI melanoma
# U251 CNS = test system: U251 CNS
# M14 melanoma = test system: M14 melanoma
# HCC-2998 colon = test system: HCC-2998 colon
# SNB-19 CNS = test system: SNB-19 CNS
# A549 NSCLC = test system: A549 NSCLC
# OVCAR-5 ovarian = test system: OVCAR-5 ovarian
# HT29 colon = test system: HT29 colon
# MDA-MB-435 = test system: MDA-MB-435
# T-47D breast = test system: T-47D breast
# PC-3 prostate = test system: PC-3 prostate
# MDA-MB-231 breast = test system: MDA-MB-231 breast
# HS 578T breast = test system: HS 578T breast
# NCI/ADR-RES ovarian = test system: NCI/ADR-RES ovarian
compound,measurement,setting,value
COC1=CC(=O)C2C(C1=O)C(c1ccc(Cl)cc1)[C@@H]2C (some centres not stated),TGI,SK-MEL-5 melanoma,41.2 µM
same,TGI,NCI-H23 lung,> 100 µM
same,TGI,UO-31 renal,63.6 µM
same,TGI,MALME-3M melanoma,46 µM
same,TGI,MOLT-4 leukemia,81.7 µM
same,TGI,LOX IMVI melanoma,> 100 µM
same,TGI,U251 CNS,62.9 µM
same,TGI,M14 melanoma,71.7 µM
same,TGI,HCC-2998 colon,> 100 µM
same,TGI,SNB-19 CNS,80.3 µM
same,TGI,A549 NSCLC,> 100 µM
same,TGI,OVCAR-5 ovarian,> 100 µM
same,TGI,HT29 colon,> 100 µM
CCOC(=O)c1c2ccc(/C=C/c3ccccc3)ccc-2c(C(=O)OCC)c1N,TGI,SK-MEL-5 melanoma,> 100 µM
same,TGI,NCI-H23 lung,> 100 µM
same,TGI,UO-31 renal,> 100 µM
same,TGI,MALME-3M melanoma,> 100 µM
same,TGI,MOLT-4 leukemia,> 100 µM
same,TGI,LOX IMVI melanoma,> 100 µM
same,TGI,M14 melanoma,> 100 µM
same,TGI,HCC-2998 colon,> 100 µM
same,TGI,SNB-19 CNS,> 100 µM
same,TGI,A549 NSCLC,> 100 µM
same,TGI,OVCAR-5 ovarian,> 100 µM
same,TGI,HT29 colon,> 100 µM
C[N+]1(C)C[C@@H](O)C[C@@H]1C(=O)[O-],TGI,NCI-H23 lung,> 100 µM
same,TGI,UO-31 renal,> 100 µM
same,TGI,MALME-3M melanoma,> 100 µM
same,TGI,MOLT-4 leukemia,> 100 µM
same,TGI,LOX IMVI melanoma,> 100 µM
same,TGI,U251 CNS,> 100 µM
same,TGI,M14 melanoma,> 100 µM
same,TGI,HCC-2998 colon,> 100 µM
same,TGI,SNB-19 CNS,> 100 µM
same,TGI,A549 NSCLC,> 100 µM
same,TGI,HT29 colon,> 100 µM
CSc1nc2nc(C(O)C(O)C(O)CO)cnc2c(=O)[nH]1 (configuration not stated),TGI,SK-MEL-5 melanoma,> 100 µM
same,TGI,NCI-H23 lung,> 100 µM
same,TGI,UO-31 renal,> 100 µM
same,TGI,MALME-3M melanoma,> 100 µM
same,TGI,MOLT-4 leukemia,> 100 µM
same,TGI,LOX IMVI melanoma,> 100 µM
same,TGI,U251 CNS,> 100 µM
same,TGI,M14 melanoma,> 100 µM
same,TGI,HCC-2998 colon,> 100 µM
same,TGI,SNB-19 CNS,> 100 µM
same,TGI,A549 NSCLC,> 100 µM
same,TGI,OVCAR-5 ovarian,> 100 µM
same,TGI,HT29 colon,> 100 µM
C=C(C)CC(C)(c1cc2ccccc2n1C)N1CCOCC1 (configuration not stated),TGI,SK-MEL-5 melanoma,> 100 µM
same,TGI,NCI-H23 lung,> 100 µM
same,TGI,UO-31 renal,> 100 µM
same,TGI,MALME-3M melanoma,> 100 µM
same,TGI,MOLT-4 leukemia,> 100 µM
same,TGI,LOX IMVI melanoma,> 100 µM
same,TGI,M14 melanoma,> 100 µM
same,TGI,HCC-2998 colon,> 100 µM
same,TGI,SNB-19 CNS,> 100 µM
same,TGI,A549 NSCLC,> 100 µM
same,TGI,HT29 colon,> 100 µM
CCOC(=O)C1=C(c2ccccc2)N(C(C)=O)Cc2ccccc21,TGI,SK-MEL-5 melanoma,25.1 µM
same,TGI,NCI-H23 lung,34.5 µM
same,TGI,UO-31 renal,> 100 µM
same,TGI,MALME-3M melanoma,46.7 µM
same,TGI,MOLT-4 leukemia,34.8 µM
same,TGI,LOX IMVI melanoma,33.2 µM
same,TGI,U251 CNS,36.8 µM
same,TGI,M14 melanoma,35 µM
same,TGI,HCC-2998 colon,> 100 µM
same,TGI,SNB-19 CNS,> 100 µM
same,TGI,A549 NSCLC,93.8 µM
same,TGI,OVCAR-5 ovarian,> 100 µM
same,TGI,HT29 colon,33.8 µM
COC(=O)CCC(NC(=O)OC(C)(C)C)C(=O)NC(Cc1ccc([N+](=O)[O-])cc1)C(=O)NC(CCC(=O)OC)C(=O)OC (configuration not stated) (Boc-Glu(OMe)-[Phe(4-NO2)]-Glu(OMe)-OMe; configuration not given here),TGI,MDA-MB-435,> 100 µM
same,TGI,T-47D breast,> 100 µM
same,TGI,SK-MEL-5 melanoma,> 100 µM
same,TGI,NCI-H23 lung,> 100 µM
same,TGI,UO-31 renal,> 100 µM
same,TGI,MALME-3M melanoma,> 100 µM
same,TGI,MOLT-4 leukemia,49.9 µM
same,TGI,LOX IMVI melanoma,80.2 µM
same,TGI,PC-3 prostate,> 100 µM
same,TGI,M14 melanoma,> 100 µM
same,TGI,MDA-MB-231 breast,> 100 µM
same,TGI,HCC-2998 colon,> 100 µM
same,TGI,HS 578T breast,> 100 µM
same,TGI,SNB-19 CNS,> 100 µM
same,TGI,A549 NSCLC,> 100 µM
same,TGI,NCI/ADR-RES ovarian,> 100 µM
same,TGI,OVCAR-5 ovarian,> 100 µM
same,TGI,HT29 colon,> 100 µM
Cc1nc2ccc(N)cc2[nH]c1=O,TGI,SK-MEL-5 melanoma,> 100 µM
same,TGI,UO-31 renal,> 100 µM
same,TGI,MALME-3M melanoma,> 100 µM
same,TGI,MOLT-4 leukemia,> 100 µM
same,TGI,LOX IMVI melanoma,> 100 µM
same,TGI,U251 CNS,> 100 µM
same,TGI,M14 melanoma,> 100 µM
same,TGI,HCC-2998 colon,> 100 µM
same,TGI,SNB-19 CNS,> 100 µM
same,TGI,A549 NSCLC,> 100 µM
same,TGI,OVCAR-5 ovarian,> 100 µM
O=C(O)COc1ccc(C(=O)/C(SS/C(C(=O)c2ccc(OCC(=O)O)c(Cl)c2Cl)=C2\C=C(c3ccccc3Cl)SS2)=C2/C=C(c3ccccc3Cl)SS2)c(Cl)c1Cl,TGI,SK-MEL-5 melanoma,49 µM
same,TGI,NCI-H23 lung,60.2 µM
same,TGI,UO-31 renal,68.2 µM
same,TGI,MALME-3M melanoma,> 100 µM
same,TGI,MOLT-4 leukemia,53.6 µM
same,TGI,LOX IMVI melanoma,28.5 µM
same,TGI,U251 CNS,36.5 µM
same,TGI,M14 melanoma,> 68 µM
same,TGI,HCC-2998 colon,> 100 µM
same,TGI,SNB-19 CNS,> 100 µM
same,TGI,A549 NSCLC,> 100 µM
same,TGI,OVCAR-5 ovarian,> 100 µM
same,TGI,HT29 colon,> 31.6 µM
N#CC1CCCCC1NC1(C#N)CCCCC1 (configuration not stated),TGI,SK-MEL-5 melanoma,> 100 µM
same,TGI,NCI-H23 lung,> 100 µM
same,TGI,UO-31 renal,> 100 µM
same,TGI,MALME-3M melanoma,> 100 µM
same,TGI,MOLT-4 leukemia,> 100 µM
same,TGI,LOX IMVI melanoma,> 100 µM
same,TGI,U251 CNS,> 100 µM
same,TGI,M14 melanoma,> 100 µM
same,TGI,HCC-2998 colon,> 100 µM
same,TGI,SNB-19 CNS,> 100 µM
same,TGI,A549 NSCLC,> 100 µM
same,TGI,HT29 colon,> 100 µM
CC(=O)NC(CCCNC(=O)OCc1ccccc1)C(=O)O (configuration not stated),TGI,SK-MEL-5 melanoma,> 100 µM
same,TGI,NCI-H23 lung,> 100 µM
same,TGI,UO-31 renal,> 100 µM
same,TGI,MALME-3M melanoma,> 100 µM
same,TGI,MOLT-4 leukemia,> 100 µM
same,TGI,LOX IMVI melanoma,> 100 µM
same,TGI,U251 CNS,> 100 µM
same,TGI,M14 melanoma,> 100 µM
same,TGI,HCC-2998 colon,> 100 µM
same,TGI,SNB-19 CNS,> 100 µM
same,TGI,A549 NSCLC,> 100 µM
same,TGI,OVCAR-5 ovarian,> 100 µM
same,TGI,HT29 colon,> 100 µM
CCOC(=O)CC(NCc1ccc(N=Cc2nc3ccc(C(F)(F)F)cc3nc2-c2ccccc2)cc1)C(=O)OCC (configuration not stated),TGI,SK-MEL-5 melanoma,> 100 µM
same,TGI,NCI-H23 lung,> 100 µM
same,TGI,UO-31 renal,> 100 µM
same,TGI,MALME-3M melanoma,> 100 µM
same,TGI,MOLT-4 leukemia,> 100 µM
same,TGI,LOX IMVI melanoma,> 100 µM
same,TGI,U251 CNS,> 100 µM
same,TGI,M14 melanoma,> 100 µM
same,TGI,HCC-2998 colon,> 100 µM
same,TGI,SNB-19 CNS,> 69.8 µM
same,TGI,A549 NSCLC,> 100 µM
same,TGI,OVCAR-5 ovarian,> 100 µM
same,TGI,HT29 colon,> 100 µM
COC(=O)C1(O)c2ccccc2N=C2C1CCN2C (configuration not stated),TGI,SK-MEL-5 melanoma,> 100 µM
same,TGI,NCI-H23 lung,> 100 µM
same,TGI,UO-31 renal,> 100 µM
same,TGI,MALME-3M melanoma,> 100 µM
same,TGI,MOLT-4 leukemia,> 100 µM
same,TGI,LOX IMVI melanoma,> 100 µM
same,TGI,U251 CNS,> 100 µM
same,TGI,M14 melanoma,> 100 µM
same,TGI,HCC-2998 colon,> 100 µM
same,TGI,SNB-19 CNS,> 100 µM
same,TGI,A549 NSCLC,> 100 µM
same,TGI,OVCAR-5 ovarian,> 100 µM
same,TGI,HT29 colon,> 100 µM
NNc1ncc2c(n1)-c1ccccc1OC2,TGI,MDA-MB-435,> 100 µM
same,TGI,SK-MEL-5 melanoma,> 100 µM
same,TGI,NCI-H23 lung,> 100 µM
same,TGI,UO-31 renal,> 100 µM
same,TGI,MALME-3M melanoma,> 100 µM
same,TGI,MOLT-4 leukemia,> 100 µM
same,TGI,LOX IMVI melanoma,> 100 µM
same,TGI,PC-3 prostate,> 100 µM
same,TGI,U251 CNS,> 100 µM
same,TGI,M14 melanoma,> 100 µM
same,TGI,MDA-MB-231 breast,> 100 µM
same,TGI,HS 578T breast,> 100 µM
same,TGI,SNB-19 CNS,> 100 µM
same,TGI,A549 NSCLC,> 100 µM
same,TGI,NCI/ADR-RES ovarian,> 100 µM
same,TGI,OVCAR-5 ovarian,> 100 µM
same,TGI,HT29 colon,> 100 µM
O=c1oc2c/c(=C\c3ccccn3)c(=O)c3cccc1c3-2,TGI,MDA-MB-435,> 100 µM
same,TGI,T-47D breast,> 100 µM
same,TGI,SK-MEL-5 melanoma,> 100 µM
same,TGI,NCI-H23 lung,> 100 µM
same,TGI,MALME-3M melanoma,> 100 µM
same,TGI,MOLT-4 leukemia,> 100 µM
same,TGI,LOX IMVI melanoma,> 100 µM
same,TGI,PC-3 prostate,> 100 µM
same,TGI,M14 melanoma,> 100 µM
same,TGI,MDA-MB-231 breast,> 100 µM
same,TGI,HCC-2998 colon,> 100 µM
same,TGI,HS 578T breast,> 100 µM
same,TGI,SNB-19 CNS,> 100 µM
same,TGI,NCI/ADR-RES ovarian,> 100 µM
same,TGI,OVCAR-5 ovarian,> 100 µM
same,TGI,HT29 colon,> 100 µM
CCOC(=O)C(NC(=O)c1ccccc1)(Nc1ccc(S(=O)(=O)Nc2cc(C)nc(C)n2)cc1)C(F)(F)F (configuration not stated),TGI,MDA-MB-435,> 100 µM
same,TGI,T-47D breast,> 100 µM
same,TGI,SK-MEL-5 melanoma,> 100 µM
same,TGI,NCI-H23 lung,> 100 µM
same,TGI,UO-31 renal,> 100 µM
same,TGI,MALME-3M melanoma,> 100 µM
same,TGI,MOLT-4 leukemia,> 100 µM
same,TGI,LOX IMVI melanoma,> 100 µM
same,TGI,PC-3 prostate,> 100 µM
same,TGI,U251 CNS,> 100 µM
same,TGI,M14 melanoma,> 100 µM
same,TGI,MDA-MB-231 breast,> 100 µM
same,TGI,HS 578T breast,> 100 µM
same,TGI,SNB-19 CNS,> 100 µM
same,TGI,A549 NSCLC,> 100 µM
same,TGI,NCI/ADR-RES ovarian,> 100 µM
same,TGI,OVCAR-5 ovarian,> 100 µM
same,TGI,HT29 colon,> 100 µM
